Patent US20110117008A1, “USE OF AVICINS TO DELIVER THERAPEUTIC AND DIAGNOSTIC AGENTS” (Research Development Foundation, priority 2007, published 2011)
“Also recorded” adds a separate entry of the source. Counter-ions that a name gives are not always drawn. *1 amine or outer side, *2 acyl side, *3 side chain or, on linkers, in order; H or OH if unused. Where a SMILES comes first, the peptide text is derived from it. Bridges are numbered along the chain shown (N, C = ends). Roman numbers before positions name the chains, in order. [ ]: non-standard residue; d: D form. Actinocin(9to1) = Cc1c2oc3c(C)ccc(C(=O)[*:1])c3nc-2c(C(=O)[*:2])c(N)c1=O; NMeV = CN[C@H](C(=O)O)C(C)C; Sar = CNCC(=O)O

What was measured:
[1] = cited from earlier work
[2] = test system: full thickness porcine skin; assay: Tritiated water transport through full thickness porcine skin, side by side diffusion cells, scintillation counting; type: in vitro ADME, pig; settings: tritiated water in PBS, F094 10 mg/ml, Avicin D and Avicin G 1 mg/ml, 24 hours
Method: In addition, it was desired to access if the known enhancer N-Methyl Pyrrolidinone (NMP) might modulate skin's water permeability when codelivered. […] Each donor compartment solution was loaded with 5 μCi/ml (1 μg/ml) of tritiated (^3H) water. Receiver compartments were sampled at 0.5, 1, 2, 3, 6, 12, 18 and 24 hours.
Likewise, Avicin D and Avicin G solutions contained 1 mg/ml of Avicin D and G respectively, along with PBS and tritiated water (1 μg/ml, 5 μCi/ml).
(§1) Upon receipt, concentrated stock solutions were made in DMSO.

[3] = test system: full thickness porcine skin; assay: 3H-estradiol transport and percutaneous absorption, full thickness porcine skin, side by side diffusion cells; type: in vitro ADME, pig; settings: 3H-estradiol in PBS; F094 5-20 mg/ml, Avicin D and Avicin G 1 mg/ml; 24 hours
Method: Each solution was loaded with 5 μCi/ml of 3H-Estradiol (Amersham TRK 322). Receiver compartments were sampled at 0.5 1, 2, 3, 6, 12, 18 and 24 hours.
Likewise, Avicin D and Avicin G solutions contained 1 mg/ml of Avicin D and G respectively, along with PBS and 3H-estradiol (5 μCi/ml).
as §1

[4] = Partition coefficient of anesthetics between octanol and water, HPLC; type: physicochemical; settings: for Partition coefficient (octanol/water): as listed in Table 4; for Partition Coefficient: octanol/water
[5] = test system: full thickness pig skin; assay: Water soluble anesthetic transport in full thickness pig skin, HPLC quantification; settings: for Maximum % Enhancement over control: highest enhancement of the anesthetic's permeability with F094
Excerpt: (§2) HPLC was used to quantify delivered mass, and to calculate permabilities in lag times. Error bar represents mean+/−standard deviation.
as §2

[6] = adults with previously untreated chronic myelogenous leukemia; cited from earlier work
[7] = cited from earlier work; remark: listed apart in the source

SMILES: Cc1c2oc3c(C)ccc(C(=O)N[C@@H]4C(=O)N[C@H](C(C)C)C(=O)N5CCC[C@H]5C(=O)N(C)CC(=O)N(C)[C@@H](C(C)C)C(=O)O[C@@H]4C)c3nc-2c(C(=O)N[C@@H]2C(=O)N[C@H](C(C)C)C(=O)N3CCC[C@H]3C(=O)N(C)CC(=O)N(C)[C@@H](C(C)C)C(=O)O[C@@H]2C)c(N)c1=O [Actinomycin D] (I: T[dV]P[Sar][NMeV] / II: T[dV]P[Sar][NMeV]; ester I:1-I:C, II:1-II:C; linker I:N-II:N via Actinocin(9to1))
- share of the dose excreted intact into the bile ([1]; in vivo): Half of the dose

SMILES: C=C[C@](C)(O)CC/C=C(\CO)C(=O)O[C@H]1[C@H](O)[C@@H](O)[C@H](O[C@@](C)(C=C)CC/C=C(\CO)C(=O)O[C@H]2C[C@]3(C(=O)O[C@@H]4O[C@H](CO)[C@@H](O)[C@H](O)[C@H]4O[C@@H]4O[C@@H](C)[C@H](O[C@@H]5O[C@@H](CO)[C@H](O)[C@H]5O)[C@@H](O[C@@H]5O[C@H](CO)[C@@H](O)[C@H](O)[C@H]5O)[C@H]4O)[C@H](O)C[C@]4(C)C(=CC[C@@H]5[C@@]6(C)CC[C@H](O[C@@H]7O[C@H](CO[C@@H]8O[C@H](C)[C@H](O)[C@H](O)[C@H]8O[C@@H]8OC[C@@H](O)[C@H](O)[C@H]8O)[C@@H](O)[C@H](O)[C@H]7NC(C)=O)C(C)(C)[C@@H]6CC[C@]54C)[C@@H]3CC2(C)C)O[C@@H]1C [Avicin D]
- effect on water transport / water permeability of skin [2]: potent enhancer of water and estradiol permeability through the skin; also recorded: increases water permeability of skin as compared to Avicin G
- effect on water transport / water permeability of skin ([2]; listed as avicin D): differentially enhance water permeability
- effect on estradiol transport / estradiol permeability of skin [3]: potent enhancer of water and estradiol permeability through the skin; also recorded: increase estradiol permeability of skin as compared to Avicin G

SMILES: C=C[C@](C)(O)CC/C=C(\C)C(=O)O[C@H]1[C@H](O)[C@@H](O)[C@H](O[C@@](C)(C=C)CC/C=C(\CO)C(=O)O[C@H]2C[C@]3(C(=O)O[C@@H]4O[C@H](CO)[C@@H](O)[C@H](O)[C@H]4O[C@@H]4O[C@@H](C)[C@H](O[C@@H]5O[C@@H](CO)[C@H](O)[C@H]5O)[C@@H](O[C@@H]5O[C@H](CO)[C@@H](O)[C@H](O)[C@H]5O)[C@H]4O)[C@H](O)C[C@]4(C)C(=CC[C@@H]5[C@@]6(C)CC[C@H](O[C@@H]7O[C@H](CO[C@@H]8O[C@H](C)[C@H](O)[C@H](O)[C@H]8O[C@@H]8OC[C@@H](O)[C@H](O)[C@H]8O)[C@@H](O)[C@H](O)[C@H]7NC(C)=O)C(C)(C)[C@@H]6CC[C@]54C)[C@@H]3CC2(C)C)O[C@@H]1C [Avicin G]
- effect on water transport / water permeability of skin [2]: inhibits water transport in comparison to Avicin D; also recorded: differentially enhance water permeability

SMILES: CCCCN1CCCCC1C(=O)Nc1c(C)cccc1C (stereo not drawn) [Bupivacaine HCl]
- Partition coefficient (octanol/water) [4]: 1.7
- Partition Coefficient ([4]; 0 mg/ml F094): 3.3 ± 0.4
- Partition Coefficient ([4]; 1 mg/ml F094): 3.6 ± 0.5
- Partition Coefficient ([4]; 5 mg/ml F094): 4.1 ± 0.3
- Partition Coefficient ([4]; 10 mg/ml F094): 3.5 ± 0.8
- Permeability [5]: 0.71 ± 0.05 × 10^−3 (cm/hr)
- Lag time ([5]; female, pig): 10.8 ± 1.1 h
- Maximum % Enhancement over control [5]: 347%

SMILES: CS(=O)(=O)OCCCCOS(C)(=O)=O [Busulfan, 1,4-butanediol dimethanesulfonate]
- hematologic remission with regression or stabilization of organomegaly [6]: Approximately 90%

SMILES: O=C(O)CCCc1ccc(N(CCCl)CCCl)cc1 [Chlorambucil, 4-[bis(2-chlorethyl)amino]benzenebutanoic acid]
- oral / gastrointestinal absorption ([1]; in vivo, po): rapidly and completely absorbed from the gastrointestinal tract
- terminal half-life ([1]; plasma): ~1.5 h

SMILES: N.N.[Cl][Pt][Cl] [Cisplatin]
- oral / gastrointestinal absorption ([1]; in vivo, po): not absorbed orally

SMILES: COc1cccc2c1C(=O)c1c(O)c3c(c(O)c1C2=O)C[C@@](O)(C(C)=O)C[C@@H]3O[C@H]1C[C@H](N)[C@H](O)[C@H](C)O1 [Daunorubicin]
- oral / gastrointestinal absorption ([1]; in vivo, po): Oral absorption is poor

SMILES: COc1cccc2c1C(=O)c1c(O)c3c(c(O)c1C2=O)C[C@@](O)(C(=O)CO)C[C@@H]3O[C@H]1C[C@H](N)[C@H](O)[C@H](C)O1 [Doxorubicin, 5,12-Naphthacenedione, (8s-cis)-10-[(3-amino-2,3,6-trideoxy-a-L-lyxo-hexopyranosyl)oxy]-7,8,9,10-tetrahydro-6,8,11-trihydroxy-8-(hydroxyacetyl)-1-methoxy-hydrochloride]
- oral / gastrointestinal absorption ([1]; in vivo, po): absorbed poorly

SMILES: O=NN(CCCl)C(=O)NC1CCCCC1 [Lomustine, 1-(2-chloro-ethyl)-3-cyclohexyl-1 nitrosourea]
- radioactivity excreted in the form of degradation products ([1]; in vivo, po): about half

SMILES: CCCNC(C)C(=O)Nc1ccccc1C (stereo not drawn) [Prilocaine HCl]
- Partition coefficient (octanol/water) [4]: 0.43
- Partition Coefficient ([4]; 0 mg/ml F094): 0.47 ± 0.03
- Partition Coefficient ([4]; 1 mg/ml F094): 0.43 ± 0.02
- Partition Coefficient ([4]; 5 mg/ml F094): 0.51 ± 0.02
- Partition Coefficient ([4]; 10 mg/ml F094): 0.50 ± 0.01
- Permeability [5]: 0.46 ± 0.11 × 10^−3 (cm/hr)
- Maximum % Enhancement over control [5]: 228%

SMILES: CC[C@@]1(O)C(=O)OCc2c1cc1n(c2=O)Cc2cc3ccccc3nc2-1 [camptothecin, Camptothecin]
- solubility in water [7]: poor water-solubility
- storage stability ([7]; stored at 2-8° C. in a dry, airtight, light-resistant environment): stable for at least two years

SMILES: CC[C@]1(O)C[C@@H]2CN(CCc3c([nH]c4ccccc34)[C@@](C(=O)OC)(c3cc4c(cc3OC)N(C)[C@H]3[C@@](O)(C(=O)OC)[C@H](OC(C)=O)[C@]5(CC)C=CCN6CC[C@]43[C@@H]65)C2)C1 [vinblastine, Vinblastine]
- plasma half-life after distribution (first) ([1]; after intravenous injection): approximately 1 hours
- plasma half-life after distribution (second) ([1]; after intravenous injection): ~72000 s
- oral / gastrointestinal absorption ([1]; in vivo, po): Unpredictable absorption

SMILES: CC[C@]1(O)C[C@H]2CN(CCc3c([nH]c4ccccc34)[C@@](C(=O)OC)(c3cc4c(cc3OC)N(C=O)[C@H]3[C@@](O)(C(=O)OC)[C@H](OC(C)=O)[C@]5(CC)C=CCN6CC[C@]43[C@@H]65)C2)C1 [vincristine, Vincristine]
- oral / gastrointestinal absorption ([1]; in vivo, po): Unpredictable absorption
